SMILES strings stand for the structures.

Consider 4 compounds from ChEMBL document CHEMBL3091325, “New aminopyrimidine derivatives as inhibitors of the TAM family” (Eur J Med Chem, 2013).

Assay [1] deals with Tyrosine-protein kinase ABL1 (Homo sapiens) (UniProt P00519). Nature of the assay: Inhibition of non-phosphorylated form of Abl1 (unknown origin) at 0.5 uM relative to control.
In assay [2] the target is Fibroblast growth factor receptor 3 (Homo sapiens) (UniProt P22607). Briefly: Inhibition of FGFR3 (unknown origin) at 0.5 uM relative to control.
Fibroblast growth factor receptor 3 (Homo sapiens), sequence (P22607 23-806 limits assumed): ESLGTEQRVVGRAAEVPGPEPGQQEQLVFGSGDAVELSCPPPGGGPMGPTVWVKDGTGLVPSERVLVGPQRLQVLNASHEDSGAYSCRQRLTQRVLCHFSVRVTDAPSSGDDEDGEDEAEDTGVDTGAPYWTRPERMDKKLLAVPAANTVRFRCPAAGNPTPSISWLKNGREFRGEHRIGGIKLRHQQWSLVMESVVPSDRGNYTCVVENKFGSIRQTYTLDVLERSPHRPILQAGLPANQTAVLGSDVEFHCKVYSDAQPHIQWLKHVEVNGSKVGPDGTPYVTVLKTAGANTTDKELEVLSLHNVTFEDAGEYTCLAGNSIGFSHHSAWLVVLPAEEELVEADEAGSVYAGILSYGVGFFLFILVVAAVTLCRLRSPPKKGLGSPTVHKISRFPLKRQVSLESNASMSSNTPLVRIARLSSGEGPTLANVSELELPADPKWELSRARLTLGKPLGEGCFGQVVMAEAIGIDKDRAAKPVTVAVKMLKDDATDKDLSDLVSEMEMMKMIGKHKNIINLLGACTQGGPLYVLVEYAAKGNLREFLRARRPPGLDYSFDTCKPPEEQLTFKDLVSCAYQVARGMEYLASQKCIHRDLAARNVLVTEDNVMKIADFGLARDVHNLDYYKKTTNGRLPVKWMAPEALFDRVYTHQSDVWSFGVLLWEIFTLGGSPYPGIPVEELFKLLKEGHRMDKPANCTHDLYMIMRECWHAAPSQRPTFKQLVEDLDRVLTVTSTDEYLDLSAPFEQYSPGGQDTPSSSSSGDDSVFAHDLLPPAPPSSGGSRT
Assay [3] addresses Tyrosine-protein kinase ABL1 (Homo sapiens) (UniProt P00519). Briefly: Inhibition of non-phosphorylated form of Abl1 (unknown origin) at 75 uM relative to control.
Assay [4] concerns the target Hepatocyte growth factor receptor (Homo sapiens) (UniProt P08581). Nature of the assay: Inhibition of Met (unknown origin) at 75 uM relative to control.
Assay [5] deals with T1, Tyrosine-protein kinase receptor TYRO3 (Homo sapiens) (UniProt Q06418).
T1 sequence (whole entry): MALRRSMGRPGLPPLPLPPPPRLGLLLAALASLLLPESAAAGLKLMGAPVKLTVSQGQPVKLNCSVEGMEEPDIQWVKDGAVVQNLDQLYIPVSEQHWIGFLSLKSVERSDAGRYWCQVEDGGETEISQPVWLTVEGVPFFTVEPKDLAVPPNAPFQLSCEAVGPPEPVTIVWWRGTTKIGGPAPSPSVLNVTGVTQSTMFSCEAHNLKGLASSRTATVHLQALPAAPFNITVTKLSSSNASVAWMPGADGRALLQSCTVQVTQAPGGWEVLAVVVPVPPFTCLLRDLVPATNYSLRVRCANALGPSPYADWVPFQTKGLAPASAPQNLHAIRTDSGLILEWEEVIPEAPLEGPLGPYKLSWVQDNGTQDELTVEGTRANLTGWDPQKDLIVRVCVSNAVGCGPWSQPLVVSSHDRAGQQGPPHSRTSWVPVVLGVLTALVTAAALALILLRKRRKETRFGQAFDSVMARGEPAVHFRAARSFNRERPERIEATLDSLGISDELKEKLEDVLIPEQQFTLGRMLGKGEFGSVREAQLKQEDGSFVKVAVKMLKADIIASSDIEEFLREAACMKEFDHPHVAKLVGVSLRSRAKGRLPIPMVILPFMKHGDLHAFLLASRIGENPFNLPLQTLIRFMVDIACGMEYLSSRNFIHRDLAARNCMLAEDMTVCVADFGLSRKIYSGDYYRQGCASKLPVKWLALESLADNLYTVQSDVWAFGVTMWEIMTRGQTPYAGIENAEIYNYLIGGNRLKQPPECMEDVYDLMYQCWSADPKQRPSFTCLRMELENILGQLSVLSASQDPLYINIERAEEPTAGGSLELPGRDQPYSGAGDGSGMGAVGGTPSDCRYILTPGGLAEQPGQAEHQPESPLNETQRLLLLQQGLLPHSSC
Briefly: Inhibition of recombinant human Tyro3 kinase domain using poly (Glu, Ala, Tyr) as substrate at 0.5 uM after 1.5 hrs by ELISA relative to control. On the technique in general: In an ELISA, binding on a coated surface is turned into a signal by an enzyme label.

The target of assay [6] is Hepatocyte growth factor receptor (Homo sapiens) (UniProt P08581). Nature of the assay: Inhibition of Met (unknown origin) at 1 uM relative to control.
Hepatocyte growth factor receptor (Homo sapiens), sequence (P08581 whole entry): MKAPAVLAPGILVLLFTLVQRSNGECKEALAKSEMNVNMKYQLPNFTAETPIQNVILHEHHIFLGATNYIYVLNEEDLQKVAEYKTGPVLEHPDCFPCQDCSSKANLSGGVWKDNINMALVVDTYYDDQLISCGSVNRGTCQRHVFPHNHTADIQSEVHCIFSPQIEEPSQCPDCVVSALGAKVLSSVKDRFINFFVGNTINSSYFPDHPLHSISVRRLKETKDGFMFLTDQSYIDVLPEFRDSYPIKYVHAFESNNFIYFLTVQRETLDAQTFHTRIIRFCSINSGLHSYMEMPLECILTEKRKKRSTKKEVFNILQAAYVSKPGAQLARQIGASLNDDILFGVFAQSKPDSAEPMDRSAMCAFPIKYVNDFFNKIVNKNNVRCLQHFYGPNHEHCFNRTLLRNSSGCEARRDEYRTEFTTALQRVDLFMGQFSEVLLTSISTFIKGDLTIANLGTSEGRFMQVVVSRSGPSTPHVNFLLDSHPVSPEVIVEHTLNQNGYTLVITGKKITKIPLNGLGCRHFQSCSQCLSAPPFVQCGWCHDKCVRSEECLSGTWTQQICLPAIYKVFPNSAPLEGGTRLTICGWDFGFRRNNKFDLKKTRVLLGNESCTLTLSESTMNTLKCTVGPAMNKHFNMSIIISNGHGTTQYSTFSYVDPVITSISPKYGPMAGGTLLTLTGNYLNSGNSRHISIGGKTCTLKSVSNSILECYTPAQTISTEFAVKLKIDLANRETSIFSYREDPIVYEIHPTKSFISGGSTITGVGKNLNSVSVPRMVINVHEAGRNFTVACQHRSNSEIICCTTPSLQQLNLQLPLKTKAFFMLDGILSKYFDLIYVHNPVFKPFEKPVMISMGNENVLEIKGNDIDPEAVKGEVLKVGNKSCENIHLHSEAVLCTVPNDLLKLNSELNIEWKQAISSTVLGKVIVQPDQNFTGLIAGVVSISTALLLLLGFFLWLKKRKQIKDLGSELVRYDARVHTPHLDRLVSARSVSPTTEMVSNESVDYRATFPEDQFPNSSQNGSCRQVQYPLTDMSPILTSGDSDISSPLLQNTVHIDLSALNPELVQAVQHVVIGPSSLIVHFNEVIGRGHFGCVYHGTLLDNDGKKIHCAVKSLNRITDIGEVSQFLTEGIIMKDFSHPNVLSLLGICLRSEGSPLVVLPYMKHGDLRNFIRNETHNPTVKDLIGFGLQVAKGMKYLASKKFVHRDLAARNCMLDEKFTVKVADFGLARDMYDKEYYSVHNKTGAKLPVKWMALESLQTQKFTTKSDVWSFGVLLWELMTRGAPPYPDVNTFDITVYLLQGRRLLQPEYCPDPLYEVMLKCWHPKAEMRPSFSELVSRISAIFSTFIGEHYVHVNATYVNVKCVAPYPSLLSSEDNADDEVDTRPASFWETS
For assay [7], the target named is T2, Tyrosine-protein kinase Mer (Homo sapiens) (UniProt Q12866).
T2 sequence (whole entry): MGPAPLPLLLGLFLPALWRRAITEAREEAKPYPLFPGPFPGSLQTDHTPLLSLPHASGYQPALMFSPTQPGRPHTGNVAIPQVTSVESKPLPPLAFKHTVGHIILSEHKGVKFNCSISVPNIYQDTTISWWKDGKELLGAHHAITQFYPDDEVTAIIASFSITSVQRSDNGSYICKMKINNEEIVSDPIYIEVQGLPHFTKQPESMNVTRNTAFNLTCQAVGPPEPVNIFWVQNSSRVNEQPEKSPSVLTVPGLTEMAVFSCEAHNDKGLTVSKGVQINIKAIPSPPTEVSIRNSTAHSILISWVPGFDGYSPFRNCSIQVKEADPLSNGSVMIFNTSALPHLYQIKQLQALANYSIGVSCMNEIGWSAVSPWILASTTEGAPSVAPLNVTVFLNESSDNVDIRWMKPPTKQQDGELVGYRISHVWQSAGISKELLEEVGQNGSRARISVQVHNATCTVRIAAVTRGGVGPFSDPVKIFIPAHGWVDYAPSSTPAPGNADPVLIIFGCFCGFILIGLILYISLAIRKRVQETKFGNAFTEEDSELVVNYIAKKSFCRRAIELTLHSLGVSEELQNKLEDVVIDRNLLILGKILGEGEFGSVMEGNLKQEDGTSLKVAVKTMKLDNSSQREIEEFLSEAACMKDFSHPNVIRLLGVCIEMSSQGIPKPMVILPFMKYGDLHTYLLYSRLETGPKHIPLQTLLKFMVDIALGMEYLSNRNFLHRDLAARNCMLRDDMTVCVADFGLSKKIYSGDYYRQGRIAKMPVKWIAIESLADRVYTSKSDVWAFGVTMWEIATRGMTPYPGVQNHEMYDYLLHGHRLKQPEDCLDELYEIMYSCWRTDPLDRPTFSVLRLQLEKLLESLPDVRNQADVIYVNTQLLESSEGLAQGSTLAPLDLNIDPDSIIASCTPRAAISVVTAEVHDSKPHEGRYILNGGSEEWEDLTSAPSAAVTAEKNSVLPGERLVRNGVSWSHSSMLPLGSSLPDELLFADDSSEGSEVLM
Briefly: Inhibition of Mer (unknown origin) at 75 uM relative to control.

In assay [8] the target is Tyrosine-protein kinase ABL1 (Homo sapiens) (UniProt P00519). Nature of the assay: Inhibition of phosphorylated form of Abl1 (unknown origin) at 75 uM relative to control.
Assay [9] deals with Fibroblast growth factor receptor 3 (Homo sapiens) (UniProt P22607). Briefly: Inhibition of FGFR3 (unknown origin) at 75 uM relative to control.
Assay [10] has as its target Tyrosine-protein kinase ABL1 (Homo sapiens) (UniProt P00519). Nature of the assay: Inhibition of phosphorylated form of Abl1 (unknown origin) at 1 uM relative to control.
For assay [11] the target is unchanged. Nature of the assay: Inhibition of phosphorylated form of Abl1 (unknown origin) at 0.5 uM relative to control.
For assay [12], the target named is T1, Tyrosine-protein kinase receptor TYRO3 (Homo sapiens). Briefly: Inhibition of recombinant human Tyro3 kinase domain using poly (Glu, Ala, Tyr) as substrate at 1 uM after 1.5 hrs by ELISA relative to control.
In assay [13] the target is T2, Tyrosine-protein kinase Mer (Homo sapiens). Nature of the assay: Inhibition of Mer (unknown origin) at 1 uM relative to control.
Assay [14] shares this target. Nature of the assay: Inhibition of Mer (unknown origin) at 0.5 uM relative to control.
Assay [15] has as its target Tyrosine-protein kinase receptor UFO (Homo sapiens) (UniProt P30530). Briefly: Inhibition of Axl (unknown origin) at 0.5 uM relative to control.
For assay [16], the target named is T1, Tyrosine-protein kinase receptor TYRO3 (Homo sapiens). Nature of the assay: Inhibition of recombinant human Tyro3 kinase domain using poly (Glu, Ala, Tyr) as substrate at 75 uM after 1.5 hrs by ELISA relative to control.
Assay [17] deals with Hepatocyte growth factor receptor (Homo sapiens) (UniProt P08581). Nature of the assay: Inhibition of Met (unknown origin) at 0.5 uM relative to control.
Assay [18] addresses Tyrosine-protein kinase ABL1 (Homo sapiens) (UniProt P00519). Briefly: Inhibition of non-phosphorylated form of Abl1 (unknown origin) at 1 uM relative to control.
The target in assay [19] is Tyrosine-protein kinase receptor UFO (Homo sapiens) (UniProt P30530). Nature of the assay: Inhibition of Axl (unknown origin) at 1 uM relative to control.
Tyrosine-protein kinase receptor UFO (Homo sapiens), sequence (P30530 whole entry, the tested form may be a part): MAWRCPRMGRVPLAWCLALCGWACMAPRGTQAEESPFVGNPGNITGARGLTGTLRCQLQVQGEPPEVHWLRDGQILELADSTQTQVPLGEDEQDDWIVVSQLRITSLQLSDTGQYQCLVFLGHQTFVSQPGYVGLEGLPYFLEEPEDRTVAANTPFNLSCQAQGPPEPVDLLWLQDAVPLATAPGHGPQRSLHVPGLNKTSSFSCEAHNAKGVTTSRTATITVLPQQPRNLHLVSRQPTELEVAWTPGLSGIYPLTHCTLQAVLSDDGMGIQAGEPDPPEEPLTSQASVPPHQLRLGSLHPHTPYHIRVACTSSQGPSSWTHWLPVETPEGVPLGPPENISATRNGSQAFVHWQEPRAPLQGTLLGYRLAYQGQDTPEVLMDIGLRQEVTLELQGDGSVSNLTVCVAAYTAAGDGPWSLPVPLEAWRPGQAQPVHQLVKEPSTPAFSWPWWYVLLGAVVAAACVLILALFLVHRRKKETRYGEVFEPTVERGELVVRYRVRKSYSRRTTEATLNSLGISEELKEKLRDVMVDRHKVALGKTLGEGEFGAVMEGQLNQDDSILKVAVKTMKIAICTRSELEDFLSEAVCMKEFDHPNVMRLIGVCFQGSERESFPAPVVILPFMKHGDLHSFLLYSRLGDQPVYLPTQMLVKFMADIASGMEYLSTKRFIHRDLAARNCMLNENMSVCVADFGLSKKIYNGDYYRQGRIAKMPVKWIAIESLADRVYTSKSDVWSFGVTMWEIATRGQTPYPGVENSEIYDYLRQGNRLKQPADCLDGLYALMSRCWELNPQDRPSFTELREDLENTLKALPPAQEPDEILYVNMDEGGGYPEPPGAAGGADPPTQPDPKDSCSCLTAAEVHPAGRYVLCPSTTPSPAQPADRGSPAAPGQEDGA
The target of assay [20] is Fibroblast growth factor receptor 3 (Homo sapiens) (UniProt P22607). Briefly: Inhibition of FGFR3 (unknown origin) at 1 uM relative to control.
In assay [21] the target is Tyrosine-protein kinase receptor UFO (Homo sapiens) (UniProt P30530). Nature of the assay: Inhibition of Axl (unknown origin) at 75 uM relative to control.

Tyrosine-protein kinase ABL1 (Homo sapiens), sequence (P00519 whole entry): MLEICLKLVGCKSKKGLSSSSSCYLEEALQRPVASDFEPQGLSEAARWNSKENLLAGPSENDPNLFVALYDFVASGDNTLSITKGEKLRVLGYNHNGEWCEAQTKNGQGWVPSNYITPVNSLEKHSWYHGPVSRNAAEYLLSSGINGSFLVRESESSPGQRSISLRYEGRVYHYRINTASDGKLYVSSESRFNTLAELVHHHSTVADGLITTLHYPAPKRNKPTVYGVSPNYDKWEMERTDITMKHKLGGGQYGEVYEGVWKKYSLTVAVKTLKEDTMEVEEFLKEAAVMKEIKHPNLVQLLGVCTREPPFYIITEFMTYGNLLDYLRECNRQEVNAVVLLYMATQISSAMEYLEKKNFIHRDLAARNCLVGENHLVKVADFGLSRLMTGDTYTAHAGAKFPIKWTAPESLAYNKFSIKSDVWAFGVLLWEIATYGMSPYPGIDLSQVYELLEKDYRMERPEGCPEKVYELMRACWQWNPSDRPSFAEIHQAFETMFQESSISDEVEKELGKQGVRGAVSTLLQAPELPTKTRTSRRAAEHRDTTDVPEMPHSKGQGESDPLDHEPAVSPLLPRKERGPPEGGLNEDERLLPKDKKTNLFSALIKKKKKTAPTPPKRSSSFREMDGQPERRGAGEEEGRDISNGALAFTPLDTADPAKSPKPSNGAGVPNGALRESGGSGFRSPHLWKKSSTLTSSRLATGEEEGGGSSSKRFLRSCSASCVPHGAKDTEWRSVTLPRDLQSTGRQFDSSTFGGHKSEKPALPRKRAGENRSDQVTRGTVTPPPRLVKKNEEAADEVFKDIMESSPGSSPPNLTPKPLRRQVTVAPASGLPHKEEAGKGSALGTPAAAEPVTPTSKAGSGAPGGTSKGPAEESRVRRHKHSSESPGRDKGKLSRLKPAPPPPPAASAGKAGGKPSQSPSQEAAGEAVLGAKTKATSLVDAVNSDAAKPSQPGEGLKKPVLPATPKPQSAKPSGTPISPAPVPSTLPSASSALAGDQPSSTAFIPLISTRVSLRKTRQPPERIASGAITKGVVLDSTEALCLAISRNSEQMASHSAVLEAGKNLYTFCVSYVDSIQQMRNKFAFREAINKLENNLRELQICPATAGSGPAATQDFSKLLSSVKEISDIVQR

As usually defined, the inhibition is the drop in the measured response relative to a control, in per cent. With `Cc1cc(F)ccc1-n1cccc(C(=O)Nc2ccc(Oc3cc(N)ncn3)c(F)c2)c1=O`, the inhibition came out at 10% in assay [1]; 0% in [2]; 98% in assay [3]; 99% in assay [4]; 48% in [5]; 100% in [6]. In addition, the inhibition in assay [7] is 99%; in assay [8], 47%; in assay [9], 6%; in [10], 0%; in assay [11], 0%; in [12] it was 65%. Besides, the inhibition in assay [13] was 65%; in assay [14], 53%; in assay [15], 93%; in assay [16] it was 100%; in [17], 99%; in assay [18] it was 27%. Further, the values for the inhibition in [19], in assay [20] and in [21] were 98%, 0% and 100%, respectively.

As to `Nc1cc(Oc2ccc(NC(=O)c3cccn(-c4ccc(F)cc4F)c3=O)cc2F)ncn1`, the inhibition in assay [1] turned out to be 25%; in assay [2] it was 0%; in assay [3], 85%; in assay [4], 99%; in assay [5], 27%; in assay [6], 97%. Further, the inhibition in assay [7] was found to be 87%; in [8] it was 21%; in [9], 9%; in assay [10], 4%; in [11] it was 8%; in assay [12], 63%. For the same compound, the inhibition in assay [13] turned out to be 71%; in assay [14] it was 50%; in [15] it was 74%; in assay [16] it was 100%; in assay [17] it was 91%; in assay [18] it was 37%. Moreover, the results for the inhibition in assay [19], in assay [20] and in [21] were 93%, 0% and 100%, respectively.

Regarding `Nc1cc(Oc2ccc(NC(=O)c3cccn(-c4ccc(F)cc4)c3=O)cc2)ncn1`, the inhibition was found to be 14% in [1]; 0% in assay [2]; 94% in [3]; 97% in assay [4]; 41% in assay [5]; 98% in [6]. Besides, the inhibition in [7] turned out to be 100%; in assay [8], 26%; in [9], 3%; in assay [10] it was 0%; in assay [11], 0%; in assay [12], 75%. Also, the inhibition was 82% in assay [13]; 73% in assay [14]; 85% in assay [15]; 81% in assay [16]; 95% in [17]; 31% in [18]. Moreover, the inhibition in assay [19] came to 95%; in assay [20], 0%; in assay [21], 100%.

Regarding `Nc1cc(Oc2ccc(NC(=O)c3cccn(-c4ccc(F)cc4)c3=O)cc2F)ncn1`, the inhibition in [1] stood at 23%; in assay [2], 0%; in assay [3], 94%; in assay [4], 98%; in assay [5] it was 77%; in [6], 98%. In addition, the inhibition in assay [7] was determined as 83%; in assay [8] it was 39%; in assay [9], 16%; in assay [10], 0%; in assay [11], 0%; in assay [12], 94%. The inhibition is 93% in assay [13]; 89% in assay [14]; 97% in assay [15]; 100% in assay [16]; 98% in [17]; 41% in assay [18]. Moreover, the inhibition in assay [19] amounted to 100%; in assay [20] it was 0%; in assay [21] it was 100%.
